The record followed here is PMC10150354, “Linearization of the Brevicidine and Laterocidine Lipopeptides Yields Analogues That Retain Full Antibacterial Activity” (Journal of Medicinal Chemistry, 2023).

≈ marks a conversion by molar mass, not a printed value. Where a SMILES comes first, the peptide text is derived from it. [ ]: non-standard residue; d: D form. The star is where a group is joined. Octanoyl(7-Me) = CC(C)CCCCCC(=O)*; dOrn = NCCC[C@@H](N)C(=O)O; Orn = NCCC[C@H](N)C(=O)O Where only a bound is given, the exact number is not on record here.

For one test, the system named is P. aeruginosa PAO1. In kind it is cell-based, Pseudomonas aeruginosa. The note with it: microbroth dilution per CLSI, MHB, 18 h at 37 °C, visual inspection, three technical replicates. An outline of the steps: (§1)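 MIC taken as the lowest concentration with no visible growth after 18 h, 37 °C, shaking, three technical replicates. Peptides were serially diluted in MHB and received cells from TSB cultures at OD600 ~0.5, diluted to 2 × 10^5 CFU/mL (kanamycin selection for the mcr-1 E. coli), following CLSI guidelines.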

The next test concerns A. baumannii ATCC 17961. In kind it is cell-based, Acinetobacter baumannii. The note with it: microbroth dilution per CLSI, MHB, 18 h at 37 °C, visual inspection, three technical replicates. An outline of the steps: as §1
A general note: Dilution methods test growth across graded concentrations, often in twofold steps.

Another test relates to K. pneumoniae ATCC 13883. In kind it is cell-based, Klebsiella pneumoniae. The settings on record: microbroth dilution per CLSI, MHB, 18 h at 37 °C, visual inspection, three technical replicates. In short, it runs like this: as §1
For a further test, the system named is S. aureus USA300. In kind it is cell-based, Staphylococcus aureus. The settings on record: microbroth dilution per CLSI, MHB, 18 h at 37 °C, visual inspection, three technical replicates. An outline of the steps:
as §1

The next test concerns E. coli (MCR-1). In kind it is cell-based, Escherichia coli. The note with it: microbroth dilution per CLSI, MHB, 18 h at 37 °C, visual inspection, three technical replicates, E. coli 25922 carrying mcr-1. In short, it runs like this: as §1
The test system of another test is E. coli ATCC 25922. In kind it is cell-based, Escherichia coli. The settings on record: for MIC (µg/mL) against E. coli (ATCC 25922): (Supplement 2); for Antibacterial activity (MIC) E. coli ATCC 25922: microbroth dilution per CLSI, MHB, 18 h at 37 °C, visual inspection, three technical replicates. In short, it runs like this: as §1

Turning to `CC[C@H](C)[C@H](NC(=O)[C@H](CC(C)C)NC(=O)[C@H](Cc1c[nH]c2ccccc12)NC(=O)[C@@H](CCCN)NC(=O)CNC(=O)[C@H](CCCN)NC(=O)[C@@H](CCCN)NC(=O)[C@@H](Cc1c[nH]c2ccccc12)NC(=O)[C@@H](Cc1ccc(O)cc1)NC(=O)[C@@H](CO)NC(=O)CCCCCC(C)C)C(=O)N[C@@H](CC(N)=O)C(=O)NCC(=O)NCC(N)=O` [LL(Leu9)-NH2 (42)] ({Octanoyl(7-Me)}-[dS][dY][dW][dOrn][Orn]G[dOrn]WLINGG-NH2), the “Antibacterial activity (MIC) P. aeruginosa PAO1” value in the test on P. aeruginosa PAO1 came to 8 µg/mL. In addition, the “Antibacterial activity (MIC) A. baumannii ATCC 17961” value in the test on A. baumannii ATCC 17961 is 4 µg/mL. Also, in the test on K. pneumoniae ATCC 13883, the “Antibacterial activity (MIC) K. pneumoniae ATCC 13883” value was found to be 8 µg/mL. Further, the “Antibacterial activity (MIC) S. aureus USA300” value with S. aureus USA300 is greater than 32 µg/mL. For the same compound, the “Antibacterial activity (MIC) E. coli (MCR-1)” value in the test with E. coli (MCR-1) came out at 8 µg/mL. In the test on E. coli ATCC 25922, the “MIC (µg/mL) against E. coli (ATCC 25922)” value was found to be 4 µg/mL (≈ 2.45 µM) and the “Antibacterial activity (MIC) E. coli ATCC 25922” value came out at 4 µg/mL.
Regarding `CC[C@H](C)[C@H](NC(=O)[C@H](CCSC)NC(=O)[C@H](Cc1c[nH]c2ccccc12)NC(=O)[C@@H](CCCN)NC(=O)CNC(=O)[C@H](CCCN)NC(=O)[C@@H](CCCN)NC(=O)[C@@H](Cc1c[nH]c2ccccc12)NC(=O)[C@@H](Cc1ccc(O)cc1)NC(=O)[C@@H](CO)NC(=O)CCCCCC(C)C)C(=O)N[C@@H](CC(N)=O)C(=O)NCC(=O)NCC(N)=O` [LL(Met9)-NH2 (44)] ({Octanoyl(7-Me)}-[dS][dY][dW][dOrn][Orn]G[dOrn]WMINGG-NH2), in the test with P. aeruginosa PAO1, the “Antibacterial activity (MIC) P. aeruginosa PAO1” value stood at 4 µg/mL. In the test on A. baumannii ATCC 17961, the “Antibacterial activity (MIC) A. baumannii ATCC 17961” value is 4 µg/mL. Moreover, in the test with K. pneumoniae ATCC 13883, the “Antibacterial activity (MIC) K. pneumoniae ATCC 13883” value was determined as 4 µg/mL. In addition, the “Antibacterial activity (MIC) S. aureus USA300” value in the test with S. aureus USA300 is greater than 32 µg/mL. The “Antibacterial activity (MIC) E. coli (MCR-1)” value in the test with E. coli (MCR-1) was determined as 4 µg/mL. Further, in the test on E. coli ATCC 25922, the “MIC (µg/mL) against E. coli (ATCC 25922)” value was 4 µg/mL (≈ 2.42 µM) and the “Antibacterial activity (MIC) E. coli ATCC 25922” value is 4 µg/mL.
Turning to `CC[C@H](C)[C@H](NC(=O)[C@H](Cc1ccccc1)NC(=O)[C@H](Cc1c[nH]c2ccccc12)NC(=O)[C@@H](CCCN)NC(=O)CNC(=O)[C@H](CCCN)NC(=O)[C@@H](CCCN)NC(=O)[C@@H](Cc1c[nH]c2ccccc12)NC(=O)[C@@H](Cc1ccc(O)cc1)NC(=O)[C@@H](CO)NC(=O)CCCCCC(C)C)C(=O)N[C@@H](CC(N)=O)C(=O)NCC(=O)NCC(N)=O` [LL(Phe9)-NH2 (43)] ({Octanoyl(7-Me)}-[dS][dY][dW][dOrn][Orn]G[dOrn]WFINGG-NH2), the “Antibacterial activity (MIC) P. aeruginosa PAO1” value in the test with P. aeruginosa PAO1 amounted to 8 µg/mL. Also, the “Antibacterial activity (MIC) A. baumannii ATCC 17961” value with A. baumannii ATCC 17961 stood at 4 µg/mL. Further, the “Antibacterial activity (MIC) K. pneumoniae ATCC 13883” value with K. pneumoniae ATCC 13883 came out at 8 µg/mL. Besides, the “Antibacterial activity (MIC) S. aureus USA300” value in the test on S. aureus USA300 was greater than 32 µg/mL. In the test on E. coli (MCR-1), the “Antibacterial activity (MIC) E. coli (MCR-1)” value stood at 4 µg/mL. In addition, in the test with E. coli ATCC 25922, the “MIC (µg/mL) against E. coli (ATCC 25922)” value came to 4 µg/mL (≈ 2.4 µM) and the “Antibacterial activity (MIC) E. coli ATCC 25922” value came out at 4 µg/mL.
For the compound `CC[C@H](C)[C@H](NC(=O)[C@H](CO)NC(=O)[C@H](Cc1c[nH]c2ccccc12)NC(=O)[C@@H](CCCN)NC(=O)CNC(=O)[C@H](CCCN)NC(=O)[C@@H](CCCN)NC(=O)[C@@H](Cc1c[nH]c2ccccc12)NC(=O)[C@@H](Cc1ccc(O)cc1)NC(=O)[C@@H](CO)NC(=O)CCCCCC(C)C)C(=O)N[C@@H](CC(N)=O)C(=O)NCC(=O)NCC(N)=O` [LL(Ser9)-NH2 (46)] ({Octanoyl(7-Me)}-[dS][dY][dW][dOrn][Orn]G[dOrn]WSINGG-NH2), the “Antibacterial activity (MIC) P. aeruginosa PAO1” value with P. aeruginosa PAO1 was determined as 4 µg/mL. Further, in the test with A. baumannii ATCC 17961, the “Antibacterial activity (MIC) A. baumannii ATCC 17961” value was 8 µg/mL. Moreover, in the test with K. pneumoniae ATCC 13883, the “Antibacterial activity (MIC) K. pneumoniae ATCC 13883” value was 4 µg/mL. In addition, the “Antibacterial activity (MIC) S. aureus USA300” value in the test with S. aureus USA300 is greater than 32 µg/mL. Moreover, in the test with E. coli (MCR-1), the “Antibacterial activity (MIC) E. coli (MCR-1)” value amounted to 8 µg/mL. Also, in the test with E. coli ATCC 25922, the “MIC (µg/mL) against E. coli (ATCC 25922)” value was determined as 4 µg/mL (≈ 2.49 µM) and the “Antibacterial activity (MIC) E. coli ATCC 25922” value was 4 µg/mL.
Consider `CC[C@H](C)[C@H](NC(=O)[C@H](Cc1c[nH]c2ccccc12)NC(=O)[C@H](Cc1c[nH]c2ccccc12)NC(=O)[C@@H](CCCN)NC(=O)CNC(=O)[C@H](CCCN)NC(=O)[C@@H](CCCN)NC(=O)[C@@H](Cc1c[nH]c2ccccc12)NC(=O)[C@@H](Cc1ccc(O)cc1)NC(=O)[C@@H](CO)NC(=O)CCCCCC(C)C)C(=O)N[C@@H](CC(N)=O)C(=O)NCC(=O)NCC(N)=O` [LL(Trp9)-NH2 (45)] ({Octanoyl(7-Me)}-[dS][dY][dW][dOrn][Orn]G[dOrn]WWINGG-NH2), for which the “Antibacterial activity (MIC) P. aeruginosa PAO1” value in the test on P. aeruginosa PAO1 was determined as 16 µg/mL. The “Antibacterial activity (MIC) A. baumannii ATCC 17961” value with A. baumannii ATCC 17961 amounted to 4 µg/mL. Also, the “Antibacterial activity (MIC) K. pneumoniae ATCC 13883” value with K. pneumoniae ATCC 13883 was determined as 4 µg/mL. Also, the “Antibacterial activity (MIC) S. aureus USA300” value in the test on S. aureus USA300 was greater than 32 µg/mL. Besides, the “Antibacterial activity (MIC) E. coli (MCR-1)” value in the test with E. coli (MCR-1) amounted to 4 µg/mL. For the same compound, in the test on E. coli ATCC 25922, the “MIC (µg/mL) against E. coli (ATCC 25922)” value was 4 µg/mL (≈ 2.34 µM) and the “Antibacterial activity (MIC) E. coli ATCC 25922” value came out at 4 µg/mL.
